Source: publication PMC3289605, “A Novel G Protein-Coupled Receptor of Schistosoma mansoni (SmGPR-3) Is Activated by Dopamine and Is Widely Expressed in the Nervous System” (PLoS Neglected Tropical Diseases, 2012)
Read-outs that look alike come from different tables or passages of the source.

Assays:
[1] = molecular target: T1, SmGPR-3 (Schistosoma mansoni, UniProt C4Q8W8); test: cell-based
T1 sequence (C4Q8W8 1-497): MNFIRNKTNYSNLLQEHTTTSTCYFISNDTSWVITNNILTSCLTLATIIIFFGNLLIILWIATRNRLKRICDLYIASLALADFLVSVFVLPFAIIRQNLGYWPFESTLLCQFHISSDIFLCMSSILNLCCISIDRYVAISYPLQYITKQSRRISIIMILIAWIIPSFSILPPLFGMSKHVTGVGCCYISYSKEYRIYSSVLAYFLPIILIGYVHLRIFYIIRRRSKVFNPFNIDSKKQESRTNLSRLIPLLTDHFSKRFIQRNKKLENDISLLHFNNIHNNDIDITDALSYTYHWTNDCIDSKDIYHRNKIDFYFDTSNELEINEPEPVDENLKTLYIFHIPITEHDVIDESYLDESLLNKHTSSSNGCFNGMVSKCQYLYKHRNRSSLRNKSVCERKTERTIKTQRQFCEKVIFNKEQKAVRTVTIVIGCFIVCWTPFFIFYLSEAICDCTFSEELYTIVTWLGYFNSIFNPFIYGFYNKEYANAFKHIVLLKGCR
Text: (§1) The SmGPR-3 coding sequence was sub-cloned between the NcoI/XbaI restriction sites of the yeast expression vector Cp4258 (kindly provided by Dr J. Broach, Princeton University, NJ, USA). The functional expression assay was adapted from the protocol of Wang and colleagues as described, [30]. The receptor was expressed in Saccharomyces cerevisiae strain YEX108 (MATα PFUS1-HIS3 PGPA1-Gαq(41)-GPA1-Gaq(5) can1 far1Δ 1442 his3 leu2 lys2 sst2Δ2 ste14::trp1::LYS2 ste18Δ6-3841 ste3Δ1156 tbt1-1 trp1 ura3; kindly provided by J. Broach, Princeton University, NJ, USA). This strain expresses the HIS3 reporter gene under the control of the FUS1 promoter and contains an integrated copy of a chimeric Gα gene in which the first […] and last five codons of native yeast Gα (GPA1) were replaced with those of human Gαq. […] YPD culture medium (1% yeast extract, 2% peptone and 2% dextrose) was used to culture YEX108 strain, according to standard conditions. The lithium acetate method was performed to transform yeast with either empty Cp4258 vector (mock) or Cp4258/SmGPR-3 expression plasmid, using 200 µl mid-log phase cells, 200 µg carrier single stranded DNA (Invitrogen) and 1 µg plasmid. Positive transformants were selected on synthetic complete (SC) 2% glucose solid medium lacking leucine (SC/leu^−). For agonist assays, single colonies of transformants were cultured overnight in SC/leu^− liquid medium at 250 rpm/30°C. The next day, cells were washed four times in SC 2% glucose liquid medium that lacked both leucine and histidine (SC/leu^−/his^−). Cells were finally resuspended in SC/leu^−/his^− medium supplemented with 50 mM 3-(N-morpholino) propanesulfonic acid (MOPS), pH 6.8 and 1.5 mM 3-Amino-1, 2, 4-Triazole (3-AT). The latter was used to reduce basal growth due to endogenous background signalling as it inhibits the gene product of HIS3 [29]. Aliquots containing approximately 3,000 cells were added to individual wells of a 96-well plate containing test agonist or vehicle plus additional medium for a total reaction volume of 100 µl. The plates were incubated at 30°C for 22–26 h, after which 10 µl of Alamar blue (Invitrogen) was added to each well. The plates were returned to the 30°C incubator until the Alamar blue color started to shift to pink (approximately 1–4 h) and fluorescence (560 nm excitation/590 nm emission) was measured at 30°C every hour up to three hours, using a plate fluorometer (FlexStation II, Molecular Devices, US). Antagonist assays were done in a similar way, except that each well contained 10^−4 M agonist (dopamine) and the antagonist at the specified concentration. Data analyses and dose-response curve fits were performed using Prism v5.0 (GraphPad software Inc.).
Functional expression assays were performed in yeast. […] The full-length SmGPR-3 cDNA was ligated to the Cp4258 vector and the recombinant plasmid was transformed into Saccharomyces cerevisae to test for receptor activity. We used a genetically modified S. cerevisae strain that is designed for GPCR activity assays. The yeast is auxotrophic for histidine and expresses a HIS3 reporter gene under the control of the FUS1 promoter. Activation of a recombinant GPCR in this system increases expression of the HIS3 reporter via the yeast's endogenous pheromone response, which in turn allows the cells to grow in selective histidine-deficient medium. Thus receptor activity can be quantified based on measurements of yeast growth in the selective medium, using a fluorometric Alamar Blue assay. Cells transformed with either empty vector (mock control) or SmGPR-3 were initially tested with all different biogenic amines, each at 2×10^−4 M (Fig. 3A).
Yeast cells transformed with empty plasmid were used as a negative control (mock).

[2] = test system: S. mansoni schistosomula; test: Motor activity of schistosomula in culture (frequency of body length changes); assay type: cell-based, Schistosoma mansoni; conditions: for concentration at which significant inhibition of motility was observed: range tested 10^−7 M–10^−4 M
Experimental: 3-day old in vitro transformed schistosomula were placed in individual wells of a 24-well plate (30–40 animals/well) in 300 µl of OPTI-MEM+10% dialyzed serum. Following an adaptation period of 15 min at room temperature, test substances were added at a final concentration of 100 µM or as indicated. Animals were monitored 5 min after drug addition by placing the 24-well plate on a compound microscope (Nikon, SMZ1500) equipped with a digital video camera (QICAM Fast 1394, mono 12 bit, Qimaging) and SimplePCI version 5.2 (Compix Inc.) for image acquisition. Images were obtained at a rate of ≈3 frames/s for a period of 1 minute and the data were analyzed with ImageJ software (version 1.41, NIH, USA). Cultured schistosomula display complex motor behaviours that are dominated by repeated changes in length, both shortening and elongation. To quantify this type of movement, we used the “Fit-Ellipse” command of ImageJ to draw best-fit ellipses of individual animals in each recorded frame. An estimate of body length was obtained by measuring the principal (“major”) axis of each ellipse, using calibrated units (µm), and the frequency of length changes during the observation period was calculated. Any change representing >10% of body length, whether an increase or decrease, was included in the calculation; changes ≤10% were disregarded. Between 12–15 animals were monitored per well and the experiment was repeated a minimum of 3 times. To monitor for possible drug induced toxicity, viability tests were performed routinely using the methylene blue dye exclusion assay described by Gold.
To explore this possibility we tested the effects of several SmGPR-3 agonists and antagonists on the motor activity of intact schistosomula in culture. […] We used a larval stage (schistosomula) instead of adult worms because the larvae are better suited for quantitative measurements of movement. […] To quantitate motor activity, we monitored individual schistosomula in the presence and absence of test substances, using a microscope equipped with a video camera and imaging software. Approximately 180 consecutive frames were recorded for each animal over 1 min of observation and the approximate length of the animal in each frame was measured in calibrated units (µm). […] To quantify the level of motor activity, we repeated experiments at different concentrations of each amine and then calculated the frequency of length changes, both decrease and increase for each individual animal during the 1 min of observation. Mean values were obtained from the average of 12–15 animals/experiment and each experiment was repeated a minimum of 3 times.
Figure 7 Effects of dopamine and related substances on schistosome motility. (A) In vitro transformed 3-day-old schistosomula were incubated with test drug, dopamine (DA) or epinine (EPN), each at (10^−4 M) or vehicle (CT, control). Animals were treated for 5 min at room temperature, after which they were examined with a compound microscope equipped with a digital video camera and SimplePCI (Compix Inc.) for image acquisition. Images were recorded for 1 minute (∼3 frames/second) and an estimate of body length in µm was obtained for each animal in every frame. Each tracing shown is of an individual animal and is representative of 12–15 larvae per experiment and 3–4 independent experiments per treatment.

[3] = test system: Saccharomyces cerevisiae strain YEX108; test: Drug-induced toxicity control: yeast growth in histidine-supplemented medium; assay type: cell-based; conditions: medium supplemented with histidine (100 µM); drug-treated cells
Experimental: (§2) Next we examined the effects of classical (mammalian) dopaminergic and other BA antagonists on the activity of SmGPR-3. Drugs were tested initially at a single concentration of 100 µM (10 µM in the case of flupenthixol) in the presence of 100 µM DA (Fig. 4A). […] Those drugs that produced significant inhibition (>50%) in the initial screen were subsequently tested at different concentrations to obtain dose response curves (Fig. 4B–F). […] To test this possibility, we repeated the assay in medium supplemented with histidine (100 µM), which enables cell growth irrespective of receptor activation.
Figure 4 Antagonist effects on SmGPR-3 activity. (A) Yeast YEX108 auxotrophic his strain expressing SmGPR-3 was incubated with agonist (DA, 100 µM) and test antagonist or vehicle. Antagonists were tested at 100 µM except for flupenthixol, which was used at 10 µM. The data were normalized relative to the control sample that contained 100 µM DA but no antagonist. To test for drug induced toxicity, assays were repeated in the presence of 100 µM test antagonist in histidine-supplemented (his+) medium, which enables the cell to grow irrespective of receptor activation (His +ve control; see text for details). Abbreviations are as follows: SPIP, spiperone; PROP, propanolol; CLZP, clozapine; BUSP, buspirone; MINS, mianserin; CPRH, cyproheptadine; FLPX, flupenthixol; PRMZ, promethazine; HLRD, haloperidol. […] The error bars are the means ± SEM for 3–4 experiments and at least 2 clones (in triplicates).

[4] = molecular target: T1, SmGPR-3; test: cell-based; conditions: for inhibition of SmGPR-3 activity: highest concentration tested, in the presence of 100 µM DA
Text: as §1, §2
Figure 4 Antagonist effects on SmGPR-3 activity. (A) Yeast YEX108 auxotrophic his strain expressing SmGPR-3 was incubated with agonist (DA, 100 µM) and test antagonist or vehicle. Antagonists were tested at 100 µM except for flupenthixol, which was used at 10 µM.

[5] = test system: SmGPR-2; design: method as in PMID 20430030; conditions: cited from earlier work
[6] = each amine at 2×10^−4 M, relative to no drug control
[7] = 50 µM, compared to untreated larvae
[8] = 100 µM, 3-day-old schistosomula, 5 min after drug addition
[9] = 500 µM, compared to untreated larvae
[10] = drug 100 µM in the presence of 100 µM DA

NCCc1ccc(O)c(O)c1 [dopamine]
EC50 [1]: 31 µM | SmGPR-3 activation by biogenic amine [1, 6]: selectively activated | effect on motor activity of schistosomula [2, 7]: decrease in motility | effect on motor activity of schistosomula [2, 8]: decreased both the amplitude and frequency of contractions | concentration at which significant inhibition of motility was observed [2]: ≥ 10 µM

O=C(CCCN1CCC(O)(c2ccc(Cl)cc2)CC1)c1ccc(F)cc1 [haloperidol]
yeast growth in the presence of histidine (toxicity control) [3]: normal or nearly normal growth | effect on motor activity of schistosomula [2, 9]: no significant motor effects

CNCC(O)c1ccc(O)c(OC)c1 (stereo not shown) [metanephrine]
SmGPR-3 activation by biogenic amine [1, 6]: stimulated SmGPR-3 activity but not to the same extent as dopamine or epinine | increase in the frequency of body wall movements ([2]; 500 µM): ≈ 3 fold | effect on motor activity of schistosomula [2, 9]: marked hyperactivation

CC(CN1c2ccccc2Sc2ccccc21)N(C)C (stereo not shown) [promethazine]
IC50 [4]: 28 µM | yeast growth in the presence of histidine (toxicity control) [3]: normal or nearly normal growth | effect on motor activity of schistosomula [2, 7]: significant decrease in motor activity | inhibition of SmGPR-2 [5]: most potent inhibitors of SmGPR-2

CN1CCC(=C2c3ccccc3C=Cc3ccccc32)CC1 [cyproheptadine]
inhibition of SmGPR-3 activity [4]: ≈ 70%

CNCCc1ccc(O)c(O)c1 [epinine]
EC50 [1]: 28.5 µM | SmGPR-3 activation by biogenic amine [1, 6]: selectively activated | effect on motor activity of schistosomula [2, 7]: decrease in motility | effect on motor activity of schistosomula [2, 8]: virtual paralysis | concentration at which significant inhibition of motility was observed [2]: ≥ 10 µM

O=C(CCCN1CCC2(CC1)C(=O)NCN2c1ccccc1)c1ccc(F)cc1 [spiperone]
enhancement of SmGPR-3 activity [4, 10]: ~2 fold

CN1CCN2c3ccccc3Cc3ccccc3C2C1 (stereo not shown) [mianserin]
inhibition of SmGPR-3 activity [4]: ≈ 70%

CN1CCN(C2=Nc3cc(Cl)ccc3Nc3ccccc32)CC1 [clozapine]
effect on SmGPR-3 activity [4, 10]: modest or no significant inhibition

CC(C)NCC(O)COc1cccc2ccccc12 (stereo not shown) [propranolol]
effect on SmGPR-3 activity [4, 10]: no effect

OCCN1CCN(CCC=C2c3ccccc3Sc3ccc(C(F)(F)F)cc32)CC1 [flupenthixol]
IC50 [4]: 3.9 µM | yeast growth in the presence of histidine (toxicity control) [3]: normal or nearly normal growth | effect on motor activity of schistosomula [2, 7]: significant decrease in motor activity | inhibition of SmGPR-2 [5]: most potent inhibitors of SmGPR-2

CNC[C@H](O)c1ccc(O)c(O)c1 [adrenaline]
SmGPR-3 activation by biogenic amine [1]: stimulated SmGPR-3 activity but not to the same extent as dopamine or epinine | effect on motor activity of schistosomula [2, 9]: decrease in motility

NC[C@H](O)c1ccc(O)c(O)c1 [noradrenaline]
SmGPR-3 activation by biogenic amine [1, 6]: stimulated SmGPR-3 activity but not to the same extent as dopamine or epinine
